Experimental data: patent publication US20250277186A1, “COMPOUND MICROBIAL INOCULUM WITH BACTERIOSTATIC EFFECT AND USE THEREOF IN PREPARATION OF YOGURT” (priority 2023, published 2025)

Assays:
[1] = test system: Lacticaseibacillus rhamnosus FMBL L23004 CNN; experiment: Antibiotic sensitivity, drug-sensitive paper; for Antibiotic sensitivity of Lacticaseibacillus rhamnosus FMBL L23004 CNN: key: R: resistant; I: intermediately sensitive; S: sensitive; type: cell-based; details: for Antibiotic sensitivity of Lacticaseibacillus rhamnosus FMBL L23004 CNN: drug-sensitive paper (content per Table 3), MRS solid medium, anaerobic 37° C. 24 h; for Resistant / sensitive, Lacticaseibacillus rhamnosus FMBL L23004 CNN: text statement for the two strains
Procedure: (§1) After two strains were cultured anaerobically at 37° C. at a 2% inoculation rate for 24 h, 100 μL (about 1×10^7 cfu/mL) of a bacteria solution of each strain was coated on the surface of an MRS solid medium, and then drug-sensitive paper (purchased from Oxoid Company, UK) was lightly pressed tightly in the middle of each of the mediums; and after anaerobic culture was carried out at 37° C. for 24 h, the bacteriostatic condition of the drug-sensitive paper was observed, and the diameter of the inhibition zone was measured.

[2] = test system: Lactiplantibacillus plantarum FMBL L23036 CNN; experiment: Antibiotic sensitivity, drug-sensitive paper; for Antibiotic sensitivity of Lactiplantibacillus plantarum FMBL L23036 CNN: key: R: resistant; I: intermediately sensitive; S: sensitive; type: cell-based; details: for Antibiotic sensitivity of Lactiplantibacillus plantarum FMBL L23036 CNN: drug-sensitive paper (content per Table 3), MRS solid medium, anaerobic 37° C. 24 h; for Resistant / sensitive, Lactiplantibacillus plantarum FMBL L23036 CNN: text statement for the two strains
Procedure: as §1

## Teicoplanin
[1]
  Antibiotic sensitivity of Lacticaseibacillus rhamnosus FMBL L23004 CNN: R
  Resistant / sensitive, Lacticaseibacillus rhamnosus FMBL L23004 CNN: resistant
[2]
  Antibiotic sensitivity of Lactiplantibacillus plantarum FMBL L23036 CNN: R
  Resistant / sensitive, Lactiplantibacillus plantarum FMBL L23036 CNN: resistant

## NCC[C@H](O)C(=O)N[C@@H]1C[C@H](N)[C@@H](O[C@H]2O[C@H](CN)[C@@H](O)[C@H](O)[C@H]2O)[C@H](O)[C@H]1O[C@H]1O[C@H](CO)[C@@H](O)[C@H](N)[C@H]1O [Amikacin]
[1]
  Antibiotic sensitivity of Lacticaseibacillus rhamnosus FMBL L23004 CNN: R
  Resistant / sensitive, Lacticaseibacillus rhamnosus FMBL L23004 CNN: resistant
[2]
  Antibiotic sensitivity of Lactiplantibacillus plantarum FMBL L23036 CNN: R
  Resistant / sensitive, Lactiplantibacillus plantarum FMBL L23036 CNN: resistant

## CN[C@H](CC(C)C)C(=O)N[C@H]1C(=O)N[C@@H](CC(N)=O)C(=O)N[C@H]2C(=O)N[C@H]3C(=O)N[C@H](C(=O)N[C@H](C(=O)O)c4cc(O)cc(O)c4-c4cc3ccc4O)[C@H](O)c3ccc(c(Cl)c3)Oc3cc2cc(c3O[C@@H]2O[C@H](CO)[C@@H](O)[C@H](O)[C@H]2O[C@H]2C[C@](C)(N)[C@H](O)[C@H](C)O2)Oc2ccc(cc2Cl)[C@H]1O [Vancomycin]
[1]
  Antibiotic sensitivity of Lacticaseibacillus rhamnosus FMBL L23004 CNN: R
  Resistant / sensitive, Lacticaseibacillus rhamnosus FMBL L23004 CNN: resistant
[2]
  Antibiotic sensitivity of Lactiplantibacillus plantarum FMBL L23036 CNN: R
  Resistant / sensitive, Lactiplantibacillus plantarum FMBL L23036 CNN: resistant

## O=C(O)c1cn(C2CC2)c2cc(N3CCNCC3)c(F)cc2c1=O [Ciprofloxacin]
[1]
  Antibiotic sensitivity of Lacticaseibacillus rhamnosus FMBL L23004 CNN: R
  Resistant / sensitive, Lacticaseibacillus rhamnosus FMBL L23004 CNN: resistant
[2]
  Antibiotic sensitivity of Lactiplantibacillus plantarum FMBL L23036 CNN: R
  Resistant / sensitive, Lactiplantibacillus plantarum FMBL L23036 CNN: resistant

## O=C(N[C@H](CO)[C@H](O)c1ccc([N+](=O)[O-])cc1)C(Cl)Cl [Chloramphenicol]
[1]
  Antibiotic sensitivity of Lacticaseibacillus rhamnosus FMBL L23004 CNN: S
  Resistant / sensitive, Lacticaseibacillus rhamnosus FMBL L23004 CNN: sensitive
[2]
  Antibiotic sensitivity of Lactiplantibacillus plantarum FMBL L23036 CNN: S
  Resistant / sensitive, Lactiplantibacillus plantarum FMBL L23036 CNN: sensitive

## Gentamicin
[1]
  Antibiotic sensitivity of Lacticaseibacillus rhamnosus FMBL L23004 CNN: R
  Resistant / sensitive, Lacticaseibacillus rhamnosus FMBL L23004 CNN: resistant
[2]
  Antibiotic sensitivity of Lactiplantibacillus plantarum FMBL L23036 CNN: R
  Resistant / sensitive, Lactiplantibacillus plantarum FMBL L23036 CNN: resistant

## Cc1onc(-c2ccccc2)c1C(=O)N[C@@H]1C(=O)N2[C@@H]1SC(C)(C)[C@@H]2C(=O)O [Oxacillin]
[1]
  Antibiotic sensitivity of Lacticaseibacillus rhamnosus FMBL L23004 CNN: I
[2]
  Antibiotic sensitivity of Lactiplantibacillus plantarum FMBL L23036 CNN: R

## O=C(Cc1cccs1)N[C@@H]1C(=O)N2C(C(=O)[O-])=C(C[n+]3ccccc3)CS[C@H]12 [Cephaloridine]
[1]
  Antibiotic sensitivity of Lacticaseibacillus rhamnosus FMBL L23004 CNN: S
  Resistant / sensitive, Lacticaseibacillus rhamnosus FMBL L23004 CNN: sensitive
[2]
  Antibiotic sensitivity of Lactiplantibacillus plantarum FMBL L23036 CNN: S
  Resistant / sensitive, Lactiplantibacillus plantarum FMBL L23036 CNN: sensitive

## Penicillin
[1]
  Antibiotic sensitivity of Lacticaseibacillus rhamnosus FMBL L23004 CNN: S
  Resistant / sensitive, Lacticaseibacillus rhamnosus FMBL L23004 CNN: sensitive
[2]
  Antibiotic sensitivity of Lactiplantibacillus plantarum FMBL L23036 CNN: S
  Resistant / sensitive, Lactiplantibacillus plantarum FMBL L23036 CNN: sensitive

## CN(C)c1ccc(O)c2c1C[C@H]1C[C@H]3[C@H](N(C)C)C(O)=C(C(N)=O)C(=O)[C@@]3(O)C(O)=C1C2=O [Minocycline]
[1]
  Antibiotic sensitivity of Lacticaseibacillus rhamnosus FMBL L23004 CNN: S
[2]
  Antibiotic sensitivity of Lactiplantibacillus plantarum FMBL L23036 CNN: S

## CC[C@H]1OC(=O)[C@H](C)[C@@H](O[C@H]2C[C@@](C)(OC)[C@@H](O)[C@H](C)O2)[C@H](C)[C@@H](O[C@@H]2O[C@H](C)C[C@H](N(C)C)[C@H]2O)[C@](C)(O)C[C@@H](C)C(=O)[C@H](C)[C@@H](O)[C@]1(C)O [Erythromycin]
[1]
  Antibiotic sensitivity of Lacticaseibacillus rhamnosus FMBL L23004 CNN: S
[2]
  Antibiotic sensitivity of Lactiplantibacillus plantarum FMBL L23036 CNN: I

## [H]/N=C(/N)N[C@H]1[C@H](O)[C@@H](O)[C@H](O[C@@H]2O[C@@H](C)[C@](O)(C=O)[C@H]2O[C@@H]2O[C@@H](CO)[C@H](O)[C@@H](O)[C@@H]2NC)[C@@H](N/C(N)=N\[H])[C@@H]1O [Streptomycin]
[1]
  Antibiotic sensitivity of Lacticaseibacillus rhamnosus FMBL L23004 CNN: I
[2]
  Antibiotic sensitivity of Lactiplantibacillus plantarum FMBL L23036 CNN: R

## CCC[C@@H]1C[C@@H](C(=O)N[C@@H]([C@H]2O[C@H](SC)[C@H](O)[C@@H](O)[C@H]2O)[C@H](C)Cl)N(C)C1 [Clindamycin]
[1]
  Antibiotic sensitivity of Lacticaseibacillus rhamnosus FMBL L23004 CNN: S
[2]
  Antibiotic sensitivity of Lactiplantibacillus plantarum FMBL L23036 CNN: S

## CCn1cc(C(=O)O)c(=O)c2cc(F)c(N3CCNCC3)cc21 [Norfloxacin]
[1]
  Antibiotic sensitivity of Lacticaseibacillus rhamnosus FMBL L23004 CNN: R
  Resistant / sensitive, Lacticaseibacillus rhamnosus FMBL L23004 CNN: resistant
[2]
  Antibiotic sensitivity of Lactiplantibacillus plantarum FMBL L23036 CNN: R
  Resistant / sensitive, Lactiplantibacillus plantarum FMBL L23036 CNN: resistant

## CO[C@H]1/C=C/O[C@@]2(C)Oc3c(C)c(O)c4c(O)c(c(/C=N/N5CCN(C)CC5)c(O)c4c3C2=O)NC(=O)/C(C)=C\C=C\[C@H](C)[C@H](O)[C@@H](C)[C@@H](O)[C@@H](C)[C@H](OC(C)=O)[C@@H]1C [Rifampicin]
[1]
  Antibiotic sensitivity of Lacticaseibacillus rhamnosus FMBL L23004 CNN: S
[2]
  Antibiotic sensitivity of Lactiplantibacillus plantarum FMBL L23036 CNN: S

## CC1(C)S[C@@H]2[C@H](NC(=O)[C@H](N)c3ccc(O)cc3)C(=O)N2[C@H]1C(=O)O [Amoxicillin]
[1]
  Antibiotic sensitivity of Lacticaseibacillus rhamnosus FMBL L23004 CNN: S
  Resistant / sensitive, Lacticaseibacillus rhamnosus FMBL L23004 CNN: sensitive
[2]
  Antibiotic sensitivity of Lactiplantibacillus plantarum FMBL L23036 CNN: S
  Resistant / sensitive, Lactiplantibacillus plantarum FMBL L23036 CNN: sensitive

## CN(C)[C@@H]1C(O)=C(C(N)=O)C(=O)[C@@]2(O)C(O)=C3C(=O)c4c(O)cccc4[C@@](C)(O)[C@H]3C[C@@H]12 [Tetracycline]
[1]
  Antibiotic sensitivity of Lacticaseibacillus rhamnosus FMBL L23004 CNN: S
[2]
  Antibiotic sensitivity of Lactiplantibacillus plantarum FMBL L23036 CNN: S

## CC1(C)S[C@@H]2[C@H](NC(=O)[C@H](N)c3ccccc3)C(=O)N2[C@H]1C(=O)O [Ampicillin]
[1]
  Antibiotic sensitivity of Lacticaseibacillus rhamnosus FMBL L23004 CNN: S
  Resistant / sensitive, Lacticaseibacillus rhamnosus FMBL L23004 CNN: sensitive
[2]
  Antibiotic sensitivity of Lactiplantibacillus plantarum FMBL L23036 CNN: S
  Resistant / sensitive, Lactiplantibacillus plantarum FMBL L23036 CNN: sensitive

## Polymyxin
[1]
  Antibiotic sensitivity of Lacticaseibacillus rhamnosus FMBL L23004 CNN: R
  Resistant / sensitive, Lacticaseibacillus rhamnosus FMBL L23004 CNN: resistant
[2]
  Antibiotic sensitivity of Lactiplantibacillus plantarum FMBL L23036 CNN: R
  Resistant / sensitive, Lactiplantibacillus plantarum FMBL L23036 CNN: resistant

## NC[C@H]1O[C@H](O[C@H]2[C@H](O)[C@@H](O[C@H]3O[C@H](CO)[C@@H](O)[C@H](N)[C@H]3O)[C@H](N)C[C@@H]2N)[C@H](O)[C@@H](O)[C@@H]1O [Kanamycin]
[1]
  Antibiotic sensitivity of Lacticaseibacillus rhamnosus FMBL L23004 CNN: R
[2]
  Antibiotic sensitivity of Lactiplantibacillus plantarum FMBL L23036 CNN: R
